Experimental data: patent publication EP4745139A1, “COMPOUND FOR TREATING AND PREVENTING RESPIRATORY SYNCYTIAL VIRUS INFECTION DISEASES” (CSPC Zhongqi Pharmaceutical Technology (Shijiazhuang) Co., …, priority 2023, dated 2025)

How the values were obtained:
[1] = tested on: RSV strain A2; assay: Antiviral detection test against RSV strain A2 based on ELISA method (Hep-2 cells); format: cell-based, Respiratory Syncytial Virus; details: RSV A2 virus strain, Hep-2 cells, ELISA OD450
Description: Test Example 1: Antiviral detection test of small molecules against RSV strain A2 based on ELISA method
• Source of cell line: Nanjing Kebai Biotechnology Co., Ltd. • Cell type: human laryngeal carcinoma epithelial cells Hep-2
• 96-well culture plate (Cat.No. 3610, Corning Costar); • Fetal bovine serum (Cat.No. 10099-141, GIBCO); • DMEM medium (Cat.No. 11995500BT, GIBCO); • Envision 2104 microplate reader.
• 1. Day 1: The Hep-2 cells were seeded into a 96-well plate at a density of 1×10^4 cells/well; • 2. Day 2: • A. Compound dilution: The compound in the first well was diluted to 9 µM, and 3-fold gradient dilution was performed, with a total of 10 gradients; • B. The Hep-2 cell plate prepared on Day 1 was taken out from the incubator, the supernatant was discarded, and 100 PFU/well/50 µL of the RSV A2 virus was added to each well. The plate was stood at 37°C in a 5% CO2 incubator for 2 hours, the supernatant was aspirated and discarded, and then 100 µL of the gradient-diluted compound or DMEM maintenance medium containing 2% FBS was added to each well; • 3. Day 5: • A. Add fixative: The gradient-diluted compound or medium was discarded from the wells, and 100 µL/well of fixative (4% paraformaldehyde) was added. The plate was stood at room temperature for 10 minutes, and then was washed once with 250 µL PBS; • B. 100 µL/well of a blocking solution was added, and the plate was incubated at 37°C in a 5% CO2 incubator for 30 minutes; • C. After incubation, the detection antibody (Anti RSV Fpro) was added at 0.3 µg/50 µL/well (6 µg/mL), and the plate was incubated at 37°C in a 5% CO2 incubator for 1 hour; • D. After incubation, the HRP secondary antibody was added (diluted 10,000-fold with 0.2% BSA), and the plate was incubated at 37°C in a 5% CO2 incubator for 1 hour; • E. After incubation, the wells were washed for 4 times with PBST, 250 µL/well, each washing was allowed to stand for 5 minutes, and the liquid in the wells was shaken off after completion of the washing; • F. 100 µL/well of a development solution was added, the plate was incubated at room temperature in the dark for 20 minutes, and 50 µL/well of a reaction termination solution was added. The plate was tapped gently to mix the solutions, and the absorbance at 450 nm was measured using the microplate reader. • 4. Data analysis • Inhibition rate of the compound against the virus = 100% - (SC - CC)/(VC - CC) × 100% • SC: OD450 value of the sample (cells + test compound + virus) • CC: OD450 value of the normal growing cell control (cells) • VC: OD450 value of the virus growth control (cells + virus)
The software Graphpad Prism 6 was used, and the calculation formula XY-analysis/Nonlinear regression (curve fit)/Dose response-Inhibition/log (inhibition) vs. response-Variable slope (four parameters) was adopted to fit the IC50 curve and calculate the IC50 value.

[2] = molecular target: human potassium ion channel (hERG) (Homo sapiens, UniProt Q12809)
human potassium ion channel (hERG), sequence (Q12809 whole entry): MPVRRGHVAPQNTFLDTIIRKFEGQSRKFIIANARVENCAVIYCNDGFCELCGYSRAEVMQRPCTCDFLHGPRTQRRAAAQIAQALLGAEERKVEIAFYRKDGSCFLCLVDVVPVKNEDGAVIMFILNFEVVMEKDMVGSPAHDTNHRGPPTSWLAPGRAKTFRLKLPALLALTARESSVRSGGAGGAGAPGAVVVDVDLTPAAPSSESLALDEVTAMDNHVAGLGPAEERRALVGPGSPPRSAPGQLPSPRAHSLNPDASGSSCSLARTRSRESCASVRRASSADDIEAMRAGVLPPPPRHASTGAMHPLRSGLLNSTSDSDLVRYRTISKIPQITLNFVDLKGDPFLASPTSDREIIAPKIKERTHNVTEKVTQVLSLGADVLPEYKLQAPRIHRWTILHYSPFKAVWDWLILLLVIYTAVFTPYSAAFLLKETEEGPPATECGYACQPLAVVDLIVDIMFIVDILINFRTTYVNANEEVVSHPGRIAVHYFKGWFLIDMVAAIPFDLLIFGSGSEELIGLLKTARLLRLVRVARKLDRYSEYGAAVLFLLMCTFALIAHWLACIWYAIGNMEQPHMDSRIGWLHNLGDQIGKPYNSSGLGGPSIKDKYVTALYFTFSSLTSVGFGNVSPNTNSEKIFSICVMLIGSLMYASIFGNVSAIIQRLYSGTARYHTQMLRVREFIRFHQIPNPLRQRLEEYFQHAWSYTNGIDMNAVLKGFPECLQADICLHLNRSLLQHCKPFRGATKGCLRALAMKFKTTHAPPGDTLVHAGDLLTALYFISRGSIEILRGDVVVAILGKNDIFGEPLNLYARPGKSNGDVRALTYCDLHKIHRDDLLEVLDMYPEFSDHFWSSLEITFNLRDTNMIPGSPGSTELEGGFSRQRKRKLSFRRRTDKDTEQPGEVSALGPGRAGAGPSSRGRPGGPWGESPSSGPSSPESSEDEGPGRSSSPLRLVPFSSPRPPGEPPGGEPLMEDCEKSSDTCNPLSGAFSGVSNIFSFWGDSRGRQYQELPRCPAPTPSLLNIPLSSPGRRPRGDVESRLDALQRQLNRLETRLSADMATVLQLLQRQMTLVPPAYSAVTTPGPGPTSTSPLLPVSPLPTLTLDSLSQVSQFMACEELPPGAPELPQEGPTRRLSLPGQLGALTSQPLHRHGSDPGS
Description: Experimental equipment: Electrophysiological detection was performed using the fully automated patch clamp QPatch 48 X (Sophion) device.
Experimental procedure: The prepared cells were placed in the centrifuge chambers of the QPatch workbench, the cells were washed by the centrifugation/suspension method for multiple times to replace the cell culture medium with an extracellular solution. One MTP-96 plate was taken out and placed at the MTP source position. The QPlate chip was taken out and then the QPlate was placed at the QPlate source position. The robotic arm scanned the MTP-96 plate and the barcodes of the QPlate chip, and grabbed them to the measurement station. Intracellular and extracellular solutions were aspirated from the liquid pool and added to the intracellular solution pool and the cell and test substance pool of the QPlate chip, respectively. At the measurement station, all measurement sites on the QPlate underwent initial quality control. […] The current detected in each cell in the extracellular solution without the compound was used as its own control group, and the detection was independently repeated on two cells. […]
Data processing: The IC50 values were calculated using GraphPad Prism software.

Compound: Cc1ccc2nc(N3CCS(=O)(=NCC4CCO4)c4ccccc4C3)nc(N3CC[C@H](N)C3)c2c1 (some centres unmarked) [Example 4-61]
- IC50 [1]: < 10 nM
- IC50 of the Compound of the present invention /AK0529 IC50 [2]: > 1
